Assay results as given in patent US20240398812A1 (Caraway Therapeutics, Inc., priority 2021, published 2024).

Columns and labels:
Type in all cases: cell-based
TRPML3 = biological target: T1, TRPML3 (Homo sapiens, UniProt Q8TDD5); assay: Fluorescent TRPML3 assay (as for TRPML1)
T1 construct: expressed in transfected cells
T1 sequence (Q8TDD5 1-553): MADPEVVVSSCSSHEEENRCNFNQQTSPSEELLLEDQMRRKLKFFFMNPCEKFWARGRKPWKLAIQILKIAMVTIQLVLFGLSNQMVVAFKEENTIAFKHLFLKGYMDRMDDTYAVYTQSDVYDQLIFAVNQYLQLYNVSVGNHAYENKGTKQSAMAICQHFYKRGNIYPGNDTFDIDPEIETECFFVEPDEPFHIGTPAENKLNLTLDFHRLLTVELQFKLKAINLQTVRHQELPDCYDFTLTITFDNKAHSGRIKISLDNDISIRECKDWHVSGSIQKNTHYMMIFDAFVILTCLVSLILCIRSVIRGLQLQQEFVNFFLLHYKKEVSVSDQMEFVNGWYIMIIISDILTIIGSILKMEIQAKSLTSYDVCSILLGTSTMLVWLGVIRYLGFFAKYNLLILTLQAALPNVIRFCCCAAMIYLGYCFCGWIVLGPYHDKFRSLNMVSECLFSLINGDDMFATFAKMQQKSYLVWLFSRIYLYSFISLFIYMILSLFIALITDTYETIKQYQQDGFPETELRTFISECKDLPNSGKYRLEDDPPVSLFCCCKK
In short: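 EC50 came from non-linear regression of percent activity, set against on-plate positive and negative controls, using Fluo4 fluorescence (ex 480, em 540 nm). Compounds ran in triplicate from 6 nM to 20 µM final in half-log steps. Doxycycline-induced (0.5 ug/mL) HEK-293 Trex cells expressing surface-directed mutant channel were in 10 mM calcium Ringer's.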

human TRPML1 = human TRPML1 (Homo sapiens, UniProt Q9GZU1); assay: Fluorescent TRPML1 assay (Fluo4-AM calcium fluorescence, HEK-293 Trex cells)
In short: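 Agonist EC50 from non-linear regression of percent activity versus on-plate controls, calcium signal read at 480/540 nm. Compounds spanned 6 nM–20 μM final in triplicate. Cells: doxycycline-induced HEK-293 Trex with cell-surface human TRPML1 mutant, Fluo4-AM loaded, in Ringer's containing 10 mM calcium.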

TRPML2 = biological target: T2, TRPML2 (Homo sapiens, UniProt Q8IZK6); assay: Fluorescent TRPML2 assay (as for TRPML1)
T2 construct: expressed in transfected cells
T2 sequence (Q8IZK6 1-566): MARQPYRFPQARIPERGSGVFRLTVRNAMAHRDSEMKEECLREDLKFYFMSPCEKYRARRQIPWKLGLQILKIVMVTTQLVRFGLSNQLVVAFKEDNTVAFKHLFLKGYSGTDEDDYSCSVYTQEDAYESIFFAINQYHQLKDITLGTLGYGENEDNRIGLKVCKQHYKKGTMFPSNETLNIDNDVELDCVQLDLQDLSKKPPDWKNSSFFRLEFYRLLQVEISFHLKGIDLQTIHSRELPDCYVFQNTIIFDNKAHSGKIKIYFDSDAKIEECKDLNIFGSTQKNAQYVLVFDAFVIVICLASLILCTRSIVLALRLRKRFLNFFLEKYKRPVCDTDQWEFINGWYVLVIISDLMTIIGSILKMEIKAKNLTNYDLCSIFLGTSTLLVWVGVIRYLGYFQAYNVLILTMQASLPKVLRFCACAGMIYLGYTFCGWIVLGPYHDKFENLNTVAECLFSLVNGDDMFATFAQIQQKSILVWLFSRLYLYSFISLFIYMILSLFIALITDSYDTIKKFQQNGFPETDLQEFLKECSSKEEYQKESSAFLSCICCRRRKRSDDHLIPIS
Method: HEK-293 Trex cells were stably transfected with a construct consisting of the human coding sequence for TRPML1 cloned into the tet-inducible plasmid pCDNA5 T/O. Mutations were introduced into the TRPML1 sequence to facilitate expression on the cell surface (Silvia Vergarajauregui, Rosa Puertollano Traffic. 2006 March; 7 (3): 337-353). Briefly, the cells are cultured in 150 mm round tissue culture dishes containing 20 mL of media. The day before the assay the cells are rinsed with DPBS —Ca—Mg and then treated briefly with Trypsin-EDTA. The Trypsin-EDTA is diluted with growth media, and cells are counted. 38×10^6 cells are re-plated into 150 mm round tissue culture dishes in media containing 0.5 ug/mL doxycycline to induce expression of hTRPML1.
The day of the experiment cells are lifted from the plates as above and collected by centrifugation. The cells are then suspended in dye loading buffer consisting of Ringer's solution supplemented with 0.1% Pluronic Acid and 1 micromolar Fluo4-AM dye. Cells are loaded for ˜60 minutes in the dark with occasional mixing. The cells are collected by centrifugation, the loading media aspirated, and the cells resuspended in 25 mL Ringer's solution and incubated ˜60 minutes in the dark. The cells are again collected by centrifugation, rinsed in Ringer's Solution and resuspended to 0.2×10^6 cells/mL in modified Ringer's solution containing 10 mM calcium.
Compounds are dissolved to a concentration of 10 millimolar with DMSO. Compound plates are created by dispensing compounds into 384 well black wall clear bottom plates (Greiner 781091). Positive and negative controls are included on each plate. Typically, different amounts of each compound are tested ranging from 100 nanoMoles (20 micromolar final concentration) decreasing in half-log steps to 31 picoMoles (6 nanomolar final concentration). Each concentration is typically tested in triplicate.
50 microliters of dye-loaded cells are dispensed into each well of the compound assay plate created above. The fluorescence in each well is then determined with an excitation wavelength of 480 nm and an emission wavelength of 540 nm using either a Molecular Devices SpectraMax multimode plate reader or a Hamamatsu FDSS/uCell plate imager.
The resulting fluorescence for each well is exported as an ascii file and loaded into our LIMS for analysis. The percent activity of each compound at each concentration is determined by comparison to the positive and negative control wells included in each plate.
Assays for TRPML2 and TRPML3 were performed as above for TRPML1, by substituting the appropriate TRPML2 or TRPML3 subtype for the TRPML1.
EC50 values were calculated using a non-linear regression of Prism. In the table, “A” indicates an EC50 of less than 100 nM, “B” indicates an EC50 range from 100 nM to 500 nM; “C” indicates an EC50 range from 500 nM to 2 μM; and “D” indicates an EC50 greater than 2 μM.

Sequence of human TRPML1 (Q9GZU1 whole entry L15A/L16A/L577A/L578A, form open): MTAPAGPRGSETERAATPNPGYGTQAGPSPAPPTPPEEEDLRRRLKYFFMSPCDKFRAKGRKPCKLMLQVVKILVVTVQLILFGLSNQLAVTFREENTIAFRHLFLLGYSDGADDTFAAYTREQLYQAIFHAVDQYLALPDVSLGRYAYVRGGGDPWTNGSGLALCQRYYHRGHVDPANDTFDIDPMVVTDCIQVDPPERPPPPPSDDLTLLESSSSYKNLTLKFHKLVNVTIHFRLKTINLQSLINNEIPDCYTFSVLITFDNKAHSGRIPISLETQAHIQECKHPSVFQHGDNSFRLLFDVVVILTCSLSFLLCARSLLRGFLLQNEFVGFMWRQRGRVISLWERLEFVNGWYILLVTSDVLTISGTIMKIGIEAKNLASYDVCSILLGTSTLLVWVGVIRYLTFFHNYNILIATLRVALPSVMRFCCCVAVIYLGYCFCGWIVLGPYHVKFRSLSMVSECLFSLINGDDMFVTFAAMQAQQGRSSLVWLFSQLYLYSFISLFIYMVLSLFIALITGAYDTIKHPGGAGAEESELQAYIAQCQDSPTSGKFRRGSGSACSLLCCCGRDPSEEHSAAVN

Row | EC50 (TRPML3; Table 3, compounds 101-177) [nM] | EC50 (human TRPML1; Table 3, compounds 101-177) [nM] | EC50 (TRPML2; Table 3, compounds 101-177) [nM] | EC50 (TRPML3; Table 3, compounds 201-283) [nM] | EC50 (human TRPML1; Table 3, compounds 201-283) [nM] | EC50 (TRPML2; Table 3, compounds 201-283) [nM] | Compound
1 | < 100 | < 100 | < 100 |  |  |  | C[C@@H]1CN(c2ncnc3c2c(-c2ccccc2F)cn3-c2cc(C#N)ccn2)CCN1C(=O)C(C)(C)C [Compound 109, (R)-2-(5-(2-fluorophenyl)-4-(3-methyl-4-pivaloylpiperazin-1-yl)-7H-pyrrolo[2,3-d]pyrimidin-7-yl)isonicotinonitrile]
2 |  |  |  | < 100 | < 100 | 500 to 2000 | COC(C)(C)C(=O)N1C[C@H](C)N(c2ncnc3c2c(N2CCC2)cn3-c2cc(C#N)ccn2)C[C@H]1C [Compound 268, 2-(5-(azetidin-1-yl)-4-((2S,5R)-4-(2-methoxy-2-methylpropanoyl)-2,5-dimethylpiperazin-1-yl)-7H-pyrrolo[2,3-d]pyrimidin-7-yl)isonicotinonitrile]
3 | < 100 | < 100 | 100 to 500 |  |  |  | C[C@@H]1CN(c2ncnc3c2c(-c2ccccc2F)cn3-c2cc(C#N)ccn2)CCN1C(=O)C(C)(C)F [Compound 126, (R)-2-(4-(4-(2-fluoro-2-methylpropanoyl)-3-methylpiperazin-1-yl)-5-(2-fluorophenyl)-7H-pyrrolo[2,3-d]pyrimidin-7-yl)isonicotinonitrile]
4 | < 100 | < 100 | 100 to 500 |  |  |  | C[C@@H]1CN(c2cn(-c3cc(C#N)ccn3)c3ncnc(N4CCN(C(=O)CC(C)(C)C)C[C@@H]4C)c23)CCO1 [Compound 165, 2-(4-((S)-4-(3,3-dimethylbutanoyl)-2-methylpiperazin-1-yl)-5-((R)-2-methylmorpholino)-7H-pyrrolo[2,3-d]pyrimidin-7-yl)isonicotinonitrile]
5 |  |  |  | < 100 | < 100 | 100 to 500 | C[C@@H]1CN(c2ncnc3c2c(N2CCC2)cn3-c2cccc(Cl)c2)[C@@H](C)CN1C(=O)C(C)(C)C [Compound 220, 1-((2R,5S)-4-(5-(azetidin-1-yl)-7-(3-chlorophenyl)-7H-pyrrolo[2,3-d]pyrimidin-4-yl)-2,5-dimethylpiperazin-1-yl)-2,2-dimethylpropan-1-one]
6 |  |  |  | 100 to 500 | < 100 | 100 to 500 | COC(C)(C)C(=O)N1CCN(c2ncnc3c2c(-c2ccccc2F)cn3-c2cc(C#N)ccn2)[C@@H](C)C1 [Compound 242, (S)-2-(5-(2-fluorophenyl)-4-(4-(2-methoxy-2-methylpropanoyl)-2-methylpiperazin-1-yl)-7H-pyrrolo[2,3-d]pyrimidin-7-yl)isonicotinonitrile]
7 |  |  |  | 100 to 500 | 100 to 500 | 500 to 2000 | C[C@@H]1CN(c2ncnc3c2c(C2CCC2)cn3-c2cc(F)cc(F)c2)[C@@H](C)CN1C(=O)C(C)(C)C(F)(F)F [Compound 259, 1-((2R,5S)-4-(5-cyclobutyl-7-(3,5-difluorophenyl)-7H-pyrrolo[2,3-d]pyrimidin-4-yl)-2,5-dimethylpiperazin-1-yl)-3,3,3-trifluoro-2,2-dimethylpropan-1-one]
8 |  |  |  | < 100 | < 100 | < 100 | C[C@@H]1CN(c2ncnc3c2c(C(F)(F)F)cn3-c2cc(C#N)ccn2)[C@@H](C)CN1C(=O)CC(C)(C)C [Compound 209, 2-(4-((2S,5R)-4-(3,3-dimethylbutanoyl)-2,5-dimethylpiperazin-1-yl)-5-(trifluoromethyl)-7H-pyrrolo[2,3-d]pyrimidin-7-yl)isonicotinonitrile]
9 |  |  |  | < 100 | < 100 | 100 to 500 | C[C@@H]1CN(c2ncnc3c2c(N2CCC2)cn3-c2cc(C#N)ccn2)[C@@H](C)CN1C(=O)C(C)(C)C [Compound 276, 2-(5-(azetidin-1-yl)-4-((2S,5R)-2,5-dimethyl-4-pivaloylpiperazin-1-yl)-7H-pyrrolo[2,3-d]pyrimidin-7-yl)isonicotinonitrile]
10 |  |  |  | < 100 | < 100 | 500 to 2000 | C[C@@H]1CN(c2ncnc3c2c(C2CCC2)cn3-c2cc(C#N)ccn2)[C@@H](C)CN1C(=O)CC(C)(C)C(F)(F)F [Compound 239, 2-(5-cyclobutyl-4-((2S,5R)-2,5-dimethyl-4-(4,4,4-trifluoro-3,3-dimethylbutanoyl)piperazin-1-yl)-7H-pyrrolo[2,3-d]pyrimidin-7-yl)isonicotinonitrile]
11 |  |  |  | 500 to 2000 | < 100 | 500 to 2000 | C[C@@H]1CN(c2ncnc3c2c(-c2ccccc2F)cn3-c2cc(F)ccn2)[C@@H](C)CN1C(=O)C1(F)CC1 [Compound 247, (1-fluorocyclopropyl)((2R,5S)-4-(5-(2-fluorophenyl)-7-(4-fluoropyridin-2-yl)-7H-pyrrolo[2,3-d]pyrimidin-4-yl)-2,5-dimethylpiperazin-1-yl)methanone]
12 | < 100 | < 100 | 500 to 2000 |  |  |  | C[C@H]1CN(C(=O)C(C)(C)C)CCN1c1ncnc2c1c(C1CC1)cn2-c1cc(C#N)ccn1 [Compound 104, (S)-2-(5-cyclopropyl-4-(2-methyl-4-pivaloylpiperazin-1-yl)-7H-pyrrolo[2,3-d]pyrimidin-7-yl)isonicotinonitrile]
13 |  |  |  | 100 to 500 | < 100 | 500 to 2000 | C[C@@H]1CN(c2ncnc3c2c(C2CCC2)cn3-c2cccc(Cl)c2)[C@@H](C)CN1C(=O)C(C)(C)C [Compound 253, 1-((2R,5S)-4-(7-(3-chlorophenyl)-5-cyclobutyl-7H-pyrrolo[2,3-d]pyrimidin-4-yl)-2,5-dimethylpiperazin-1-yl)-2,2-dimethylpropan-1-one]
14 |  |  |  | 100 to 500 | 500 to 2000 | 100 to 500 | CC(C)C(=O)N1C[C@@H](C)N(c2ncnc3c2c(-c2ccccc2F)cn3-c2cc(C#N)ccn2)C[C@@H]1C [Compound 201, 2-(5-(2-fluorophenyl)-4-((2R,5S)-4-isobutyryl-2,5-dimethylpiperazin-1-yl)-7H-pyrrolo[2,3-d]pyrimidin-7-yl)isonicotinonitrile]
